In PubChem BioAssay (NCI):
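Method: 48-hour compound exposure of cells in 96-well plates, five concentrations, linear interpolation of endpoints. GI50 = concentration required for 50% inhibition of growth. At the TGI there is no net growth.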

How the values were obtained:
Assay in all cases: NCI tumour cell line growth inhibition, 48 h
[1] = system: A549 NSCLC
[2] = system: SK-MEL-2 melanoma
[3] = system: HCT-116 colon
[4] = system: SK-MEL-5 melanoma
[5] = system: SN12C renal
[6] = system: UACC-257 melanoma
[7] = system: UACC-62 melanoma
[8] = system: MCF7 breast
[9] = system: OVCAR-4 ovarian
[10] = system: IGROV1 ovarian

SMILES | GI50 [1] [µM] | TGI [1] [µM] | GI50 [2] [µM] | TGI [2] [µM] | GI50 [3] [µM] | TGI [3] [µM] | GI50 [4] [µM] | TGI [4] [µM] | GI50 [5] [µM] | TGI [5] [µM] | GI50 [6] [µM] | TGI [6] [µM] | GI50 [7] [µM] | TGI [7] [µM] | GI50 [8] [µM] | TGI [8] [µM] | GI50 [9] [µM] | TGI [9] [µM] | GI50 [10] [µM] | TGI [10] [µM]
C[CH2][Sn]1([CH2]C)[O]C2C(O)OC(CO)C(O)C2[O]1 (centres undefined) | > 100 | > 100 | 35.5 | > 100 | 77.7 | > 100 | 34.1 | > 100 | 4.55 | 26.5 | 14.4 | 31.8 | 17.9 | 39.6 | 25.4 | 79.5 | 14.8 | 36.9 | 38.7 | > 100
COC(=O)C1=C2C3=C(C(=O)c4ccccc4C3=O)N(Cc3ccccc3)C2(OC(C)=O)C=CC1=O (centres undefined) | 27.6 | > 100 | 42.5 | > 100 | 6.25 | 24.8 | 10.2 | 24.9 | 6.78 | 30.2 | 29.6 | > 100 | 10.6 | 32.7 | 3.73 | > 100 | 34.4 | > 100 | 16.5 | > 100
Nc1nn(C(=O)Nc2ccc(Cc3ccccc3)cc2)c2ccc(Cl)cc12 | 5.76 | > 89.2 | 16.5 | > 100 | 0.354 | 24.2 | 0.33 | 25.8 | 14.2 | 48.1 | 10.1 | > 100 | 0.0397 | > 100 | 0.422 | 18 | 1.48 | 49 | 19.9 | > 100
Clc1ccc(N/N=C/c2ccccn2)nc1 | 0.518 | > 100 | 0.675 | > 100 | 0.305 | > 100 | 0.423 | 2.59 | 0.469 | > 100 | 0.636 | > 23.6 | 0.301 | 1.08 | 0.338 | > 100 | 0.321 | > 100 | 0.441 | > 100
Oc1ccc(Cl)cc1Cc1cc(Cl)cc(Cc2cc(Cl)ccc2O)c1O |  | 10.6 |  | 7.68 |  | 9.33 |  | 2.56 |  | 8.21 |  | 5.18 |  | 10.1 |  | 6.98 |  | 16.2 |  | 13.5
O=c1oc2c(Br)c(O)c(Br)cc2c2ccccc12 |  | 87.1 |  | 62.7 |  | 92.6 |  | 50.2 |  | 84.4 |  | 61.7 |  | 50.5 |  | 48.7 |  | 89.9 |  | > 100
COc1cc2c3c(n(CCCN=[N+]=[N-])c(=O)c2cc1OC)-c1ccc(N)cc1C3=O | 0.374 | 2.34 | 0.622 | 1.55 | 0.097 | 0.521 | 0.0784 | 0.223 | 0.282 | > 27.1 | 0.431 | 1.49 | 0.082 | 0.451 | 0.143 |  | 0.608 | 2.59 | 0.153 | 0.637
